Literature values in patent US4694069A, “Kibdelosporangium aridum SK&F-AAD-609” (SmithKline Beckman Corporation, priority 1985, dated 1987).

Details: comparators, source not given; cited from earlier work

ristocetin
Isoelectric point: 8.4
